# Test results reported in ChEMBL document CHEMBL1201862, “PubChem BioAssay data set” (2004).
# Calls of active or inactive are those of the source.
# Experiments:
# [1] = biological target: T1, DNA dC->dU-editing enzyme APOBEC-3A (Homo sapiens, UniProt P31941); experiment: Dose Response confirmation of small molecule APOBEC3A DNA Deaminase Inhibitors via a fluorescence-based single-stranded DNA deaminase assay. [Related pubchem assays (depositor defined):AID493011, AID493024]; format: functional
# T1 sequence (P31941 whole entry): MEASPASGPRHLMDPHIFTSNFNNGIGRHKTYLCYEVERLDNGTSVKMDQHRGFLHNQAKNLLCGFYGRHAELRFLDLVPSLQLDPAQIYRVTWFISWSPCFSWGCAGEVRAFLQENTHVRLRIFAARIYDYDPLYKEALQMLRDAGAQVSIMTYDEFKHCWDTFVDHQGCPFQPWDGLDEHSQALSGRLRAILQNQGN
# [2] = biological target: T2, DNA dC->dU-editing enzyme APOBEC-3G (Homo sapiens, UniProt Q9HC16); format: functional
# T2 sequence (Q9HC16 whole entry): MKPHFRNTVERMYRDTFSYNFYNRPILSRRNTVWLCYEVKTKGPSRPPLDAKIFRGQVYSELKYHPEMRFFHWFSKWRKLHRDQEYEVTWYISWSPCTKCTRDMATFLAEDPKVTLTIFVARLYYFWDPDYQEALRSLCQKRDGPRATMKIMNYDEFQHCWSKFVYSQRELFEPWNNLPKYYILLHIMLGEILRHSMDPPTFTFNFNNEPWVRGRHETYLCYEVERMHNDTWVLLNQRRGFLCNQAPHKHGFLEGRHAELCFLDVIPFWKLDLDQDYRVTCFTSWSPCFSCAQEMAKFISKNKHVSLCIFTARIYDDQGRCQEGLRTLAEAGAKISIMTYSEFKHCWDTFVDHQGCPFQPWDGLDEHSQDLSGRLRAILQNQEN
# [3] = biological target: T1, DNA dC->dU-editing enzyme APOBEC-3A; experiment: SAR analysis of small molecule inhibitors of APOBEC3A DNA Deaminase via a fluorescence-based single-stranded DNA deaminase assay - Set 2.; format: functional; conditions: read-out: IC50_Mean
# [4] = biological target: T2, DNA dC->dU-editing enzyme APOBEC-3G; experiment: SAR analysis of small molecule inhibitors of APOBEC3G DNA Deaminase via a fluorescence-based single-stranded DNA deaminase assay - Set 2.; format: functional; conditions: read-out: IC50_Mean
# [5] = biological target: T2, DNA dC->dU-editing enzyme APOBEC-3G; experiment: inhibition of APOBEC3G ssDNA deamination – biochemical, fluorescence, single-stranded DNA substrate, SAR follow-up (AID 602136); format: functional; conditions: read-out: IC50_Mean
# [6] = biological target: T1, DNA dC->dU-editing enzyme APOBEC-3A; experiment: SAR analysis of small molecule inhibitors of APOBEC3A DNA Deaminase via a fluorescence-based single-stranded DNA deaminase assay.; format: functional; conditions: read-out: IC50_Mean
# [7] = system: H9c2; experiment: cells; format: functional, cell-based; conditions: Rattus norvegicus, H9c2, Myocardium;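 also: confirmatory concentration-response retest of ultra-high-throughput screening hits for modulation of myocardial damage; cell death induced by hydrogen peroxide oxidative stress; compound pretreatment for 60 min then peroxide exposure for 2 h; potency is for protecting the cells against peroxide damage rather than for killing them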
# [8] = bead-based luminescence quenchers, dual-tagged ARNT – biochemical, AlphaScreen, cherry-pick, artefact control for ARNT-TACC3 interaction inhibitor project, dose response (AID 651705); format: functional;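 also: AlphaScreen bead proximity signal that flags compounds interfering with the detection technology; potency reflects signal decrease which marks the compound as an assay artifact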
# [9] = inhibition of ARNT PAS-B/TACC3 complex formation – biochemical, AlphaScreen, cherry-picked samples, confirmation (AID 651703); format: functional, Homo sapiens;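 also: His-tagged ARNT PAS-B domain paired with GST-TACC3 E629A dimer coactivator fragment; potency of inhibitors that break up the complex and lower AlphaScreen signal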
# [10] = biological target: Nonstructural protein 1 (Influenza A virus, UniProt Q194T2); format: functional, Influenza A virus (A/California/07/2009(H1N1))
# [11] = NIH3T3 cell viability loss, ATP content – CellTiter-Glo luminescence, cherry-pick, set 2, cytotoxicity control for HSP40 inhibitor project, dose response (AID 624265); format: functional
# [12] = biological target: T3, Histone-lysine N-methyltransferase NSD2 (Homo sapiens, UniProt O96028); format: biochemical
# T3 sequence (O96028 whole entry): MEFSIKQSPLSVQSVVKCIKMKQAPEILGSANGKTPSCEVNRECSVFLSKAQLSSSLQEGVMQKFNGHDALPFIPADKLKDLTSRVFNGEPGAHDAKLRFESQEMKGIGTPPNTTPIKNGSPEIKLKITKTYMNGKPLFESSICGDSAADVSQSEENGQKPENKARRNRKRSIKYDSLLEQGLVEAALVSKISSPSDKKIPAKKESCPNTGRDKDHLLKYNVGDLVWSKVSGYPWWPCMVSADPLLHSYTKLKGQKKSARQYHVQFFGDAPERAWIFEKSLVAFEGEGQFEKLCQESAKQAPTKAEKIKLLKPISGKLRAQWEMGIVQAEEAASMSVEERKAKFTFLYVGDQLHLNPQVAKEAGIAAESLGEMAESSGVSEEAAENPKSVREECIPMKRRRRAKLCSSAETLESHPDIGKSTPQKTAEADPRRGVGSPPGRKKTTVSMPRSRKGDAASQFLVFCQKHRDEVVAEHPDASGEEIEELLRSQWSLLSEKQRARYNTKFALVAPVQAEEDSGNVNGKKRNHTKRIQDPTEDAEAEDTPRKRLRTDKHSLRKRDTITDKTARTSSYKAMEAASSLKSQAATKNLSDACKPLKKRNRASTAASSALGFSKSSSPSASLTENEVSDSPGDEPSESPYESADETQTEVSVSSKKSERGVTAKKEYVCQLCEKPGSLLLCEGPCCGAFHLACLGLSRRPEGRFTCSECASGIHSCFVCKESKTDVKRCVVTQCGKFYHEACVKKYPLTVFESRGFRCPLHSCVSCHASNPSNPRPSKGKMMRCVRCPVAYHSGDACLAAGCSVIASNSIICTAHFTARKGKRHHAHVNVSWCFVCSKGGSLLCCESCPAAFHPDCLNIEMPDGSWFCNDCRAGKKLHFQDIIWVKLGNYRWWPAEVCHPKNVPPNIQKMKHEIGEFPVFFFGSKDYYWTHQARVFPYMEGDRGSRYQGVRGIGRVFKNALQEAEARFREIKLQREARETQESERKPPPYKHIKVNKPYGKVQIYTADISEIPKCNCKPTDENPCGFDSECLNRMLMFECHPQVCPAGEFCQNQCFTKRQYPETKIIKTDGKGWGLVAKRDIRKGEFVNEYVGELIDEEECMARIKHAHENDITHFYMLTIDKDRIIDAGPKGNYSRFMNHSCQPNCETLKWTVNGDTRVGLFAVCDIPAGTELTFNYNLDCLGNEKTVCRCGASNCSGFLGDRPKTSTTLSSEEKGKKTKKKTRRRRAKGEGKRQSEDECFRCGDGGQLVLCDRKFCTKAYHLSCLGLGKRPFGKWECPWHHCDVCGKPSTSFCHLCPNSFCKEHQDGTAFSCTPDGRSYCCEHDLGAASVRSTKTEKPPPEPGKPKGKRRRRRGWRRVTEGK
# [13] = biological target: Melanocortin receptor 4 (Homo sapiens, UniProt P32245); format: functional, cell-based;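 also: Cell-based assay with luminescence read-out, confirmatory dose-response testing for agonist activity of biased ligands at MC4R; human U2OS cells with tagged receptor and beta-arrestin; potency of agonists that increase receptor coupling to beta-arrestin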
# [14] = biological target: Serine/threonine-protein kinase pim-1 (Homo sapiens, UniProt P11309); format: functional
# [15] = biological target: Cell division cycle 7-related protein kinase (Homo sapiens, UniProt O00311); format: functional;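 also: value obtained from a kinome-wide kinase panel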
# [16] = biological target: Homeodomain-interacting protein kinase 2 (Homo sapiens, UniProt Q9H2X6); format: functional;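 also: measured within a kinome-wide kinase profiling panel, HIPK2 being one panel member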
# [17] = biological target: T4, Interleukin-1 receptor-associated kinase 4 (Homo sapiens, UniProt Q9NWZ3); format: functional
# T4 sequence (Q9NWZ3 whole entry): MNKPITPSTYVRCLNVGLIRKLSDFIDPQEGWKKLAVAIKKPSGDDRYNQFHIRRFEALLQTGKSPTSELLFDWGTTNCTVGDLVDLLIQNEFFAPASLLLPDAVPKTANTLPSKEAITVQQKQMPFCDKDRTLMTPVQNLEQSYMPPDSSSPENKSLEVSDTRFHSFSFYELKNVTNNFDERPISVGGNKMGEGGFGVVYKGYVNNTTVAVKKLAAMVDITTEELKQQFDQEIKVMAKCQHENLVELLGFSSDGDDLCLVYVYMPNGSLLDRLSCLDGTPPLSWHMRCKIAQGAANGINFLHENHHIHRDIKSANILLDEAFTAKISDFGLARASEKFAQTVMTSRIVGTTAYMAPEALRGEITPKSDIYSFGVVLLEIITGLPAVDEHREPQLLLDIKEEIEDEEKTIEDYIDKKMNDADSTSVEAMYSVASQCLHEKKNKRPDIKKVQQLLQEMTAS
# [18] = biological target: Glycogen synthase kinase-3 beta (Homo sapiens, UniProt P49841); format: functional;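 also: value comes from a broad kinome profiling panel, with GSK3B as the panel member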
# [19] = biological target: cAMP-dependent protein kinase catalytic subunit alpha (Homo sapiens, UniProt P17612); format: functional
# [20] = biological target: Dual specificity protein kinase CLK4 (Homo sapiens, UniProt Q9HAZ1); format: functional
# [21] = biological target: Mitogen-activated protein kinase kinase kinase kinase 4 (Homo sapiens, UniProt O95819); format: functional
# [22] = biological target: Tyrosine-protein kinase Lck (Homo sapiens, UniProt P06239); format: functional;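 also: lck was assayed as one member of a kinase panel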
# [23] = biological target: Mast/stem cell growth factor receptor Kit (Homo sapiens, UniProt P10721); format: functional;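 also: KIT entry within a kinase panel assay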
# [24] = biological target: Tyrosine-protein kinase Lyn (Homo sapiens, UniProt P07948); format: functional;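 also: lyn as one member of a kinase panel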
# [25] = biological target: Tyrosine-protein kinase Blk (Homo sapiens, UniProt P51451); format: functional;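 also: obtained as one member of a kinome-wide kinase assay panel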
# [26] = biological target: High affinity nerve growth factor receptor (Homo sapiens, UniProt P04629); format: functional;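 also: NTRK1 tested as one member of a kinome-wide profiling panel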
# High affinity nerve growth factor receptor, sequence (P04629 whole entry): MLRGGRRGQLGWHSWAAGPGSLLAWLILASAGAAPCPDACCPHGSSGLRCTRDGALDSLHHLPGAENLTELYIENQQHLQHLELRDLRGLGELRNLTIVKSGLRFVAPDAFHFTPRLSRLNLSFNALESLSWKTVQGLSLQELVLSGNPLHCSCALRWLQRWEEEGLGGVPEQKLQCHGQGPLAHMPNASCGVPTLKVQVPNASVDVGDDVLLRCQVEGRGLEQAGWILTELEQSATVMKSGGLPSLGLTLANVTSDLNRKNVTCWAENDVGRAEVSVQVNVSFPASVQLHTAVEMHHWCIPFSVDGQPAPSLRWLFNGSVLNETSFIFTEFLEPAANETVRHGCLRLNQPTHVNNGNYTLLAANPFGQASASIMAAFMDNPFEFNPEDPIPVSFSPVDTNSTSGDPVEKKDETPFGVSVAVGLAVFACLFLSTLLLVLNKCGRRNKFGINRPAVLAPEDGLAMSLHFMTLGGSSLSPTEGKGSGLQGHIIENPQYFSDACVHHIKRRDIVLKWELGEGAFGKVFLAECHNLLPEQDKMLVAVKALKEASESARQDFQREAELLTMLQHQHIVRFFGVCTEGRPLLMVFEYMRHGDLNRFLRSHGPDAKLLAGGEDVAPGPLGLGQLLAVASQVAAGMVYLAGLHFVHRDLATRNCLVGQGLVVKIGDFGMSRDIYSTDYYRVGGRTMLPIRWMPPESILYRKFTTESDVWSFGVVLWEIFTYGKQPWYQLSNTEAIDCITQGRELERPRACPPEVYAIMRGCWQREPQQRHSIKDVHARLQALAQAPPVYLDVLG
# [27] = biological target: Proto-oncogene tyrosine-protein kinase Src (Homo sapiens, UniProt P12931); format: functional;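 also: SRC entry within a kinome-wide kinase profiling panel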
# [28] = biological target: T5, Receptor-type tyrosine-protein kinase FLT3 (Homo sapiens, UniProt P36888); format: functional;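 also: FLT3 was tested as one member of a kinome-wide kinase panel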
# T5 sequence (P36888 whole entry): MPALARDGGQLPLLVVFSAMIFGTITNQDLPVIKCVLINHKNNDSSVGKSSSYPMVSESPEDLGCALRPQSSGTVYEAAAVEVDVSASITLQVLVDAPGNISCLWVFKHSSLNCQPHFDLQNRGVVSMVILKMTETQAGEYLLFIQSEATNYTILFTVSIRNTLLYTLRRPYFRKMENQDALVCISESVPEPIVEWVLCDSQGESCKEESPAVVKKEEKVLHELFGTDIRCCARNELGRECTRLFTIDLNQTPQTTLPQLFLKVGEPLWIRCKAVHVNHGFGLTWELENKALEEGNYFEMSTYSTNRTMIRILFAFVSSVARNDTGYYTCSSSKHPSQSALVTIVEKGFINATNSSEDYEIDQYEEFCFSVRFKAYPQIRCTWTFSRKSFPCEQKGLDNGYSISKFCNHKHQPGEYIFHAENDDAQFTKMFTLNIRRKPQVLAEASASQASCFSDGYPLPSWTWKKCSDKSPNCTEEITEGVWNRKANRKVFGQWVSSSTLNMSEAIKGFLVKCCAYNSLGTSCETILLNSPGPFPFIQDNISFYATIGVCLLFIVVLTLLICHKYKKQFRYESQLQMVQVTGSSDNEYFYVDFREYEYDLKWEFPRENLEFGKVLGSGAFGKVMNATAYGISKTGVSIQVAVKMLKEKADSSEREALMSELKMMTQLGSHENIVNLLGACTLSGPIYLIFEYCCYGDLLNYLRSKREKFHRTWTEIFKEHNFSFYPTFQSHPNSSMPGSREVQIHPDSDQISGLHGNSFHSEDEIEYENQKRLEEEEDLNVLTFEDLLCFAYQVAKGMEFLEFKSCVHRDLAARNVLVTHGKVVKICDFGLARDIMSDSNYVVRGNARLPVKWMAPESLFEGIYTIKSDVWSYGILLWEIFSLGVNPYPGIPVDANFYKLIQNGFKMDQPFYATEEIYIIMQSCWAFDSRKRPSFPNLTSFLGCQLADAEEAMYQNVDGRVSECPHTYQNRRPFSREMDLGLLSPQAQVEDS
# [29] = biological target: Tyrosine-protein kinase ABL1 (Homo sapiens, UniProt P00519); format: functional
# [30] = biological target: Vascular endothelial growth factor receptor 2 (Homo sapiens, UniProt P35968); format: functional
# [31] = biological target: Vascular endothelial growth factor receptor 3 (Homo sapiens, UniProt P35916); format: functional;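 also: value from a kinome-wide profiling panel, with FLT4 as the panel member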
# [32] = biological target: Tyrosine-protein kinase Fyn (Homo sapiens, UniProt P06241); format: functional
# [33] = biological target: Vascular endothelial growth factor receptor 1 (Homo sapiens, UniProt P17948); format: functional;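 also: measured within a kinome-wide profiling panel, FLT1 as the panel member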
# Vascular endothelial growth factor receptor 1, sequence (P17948 whole entry): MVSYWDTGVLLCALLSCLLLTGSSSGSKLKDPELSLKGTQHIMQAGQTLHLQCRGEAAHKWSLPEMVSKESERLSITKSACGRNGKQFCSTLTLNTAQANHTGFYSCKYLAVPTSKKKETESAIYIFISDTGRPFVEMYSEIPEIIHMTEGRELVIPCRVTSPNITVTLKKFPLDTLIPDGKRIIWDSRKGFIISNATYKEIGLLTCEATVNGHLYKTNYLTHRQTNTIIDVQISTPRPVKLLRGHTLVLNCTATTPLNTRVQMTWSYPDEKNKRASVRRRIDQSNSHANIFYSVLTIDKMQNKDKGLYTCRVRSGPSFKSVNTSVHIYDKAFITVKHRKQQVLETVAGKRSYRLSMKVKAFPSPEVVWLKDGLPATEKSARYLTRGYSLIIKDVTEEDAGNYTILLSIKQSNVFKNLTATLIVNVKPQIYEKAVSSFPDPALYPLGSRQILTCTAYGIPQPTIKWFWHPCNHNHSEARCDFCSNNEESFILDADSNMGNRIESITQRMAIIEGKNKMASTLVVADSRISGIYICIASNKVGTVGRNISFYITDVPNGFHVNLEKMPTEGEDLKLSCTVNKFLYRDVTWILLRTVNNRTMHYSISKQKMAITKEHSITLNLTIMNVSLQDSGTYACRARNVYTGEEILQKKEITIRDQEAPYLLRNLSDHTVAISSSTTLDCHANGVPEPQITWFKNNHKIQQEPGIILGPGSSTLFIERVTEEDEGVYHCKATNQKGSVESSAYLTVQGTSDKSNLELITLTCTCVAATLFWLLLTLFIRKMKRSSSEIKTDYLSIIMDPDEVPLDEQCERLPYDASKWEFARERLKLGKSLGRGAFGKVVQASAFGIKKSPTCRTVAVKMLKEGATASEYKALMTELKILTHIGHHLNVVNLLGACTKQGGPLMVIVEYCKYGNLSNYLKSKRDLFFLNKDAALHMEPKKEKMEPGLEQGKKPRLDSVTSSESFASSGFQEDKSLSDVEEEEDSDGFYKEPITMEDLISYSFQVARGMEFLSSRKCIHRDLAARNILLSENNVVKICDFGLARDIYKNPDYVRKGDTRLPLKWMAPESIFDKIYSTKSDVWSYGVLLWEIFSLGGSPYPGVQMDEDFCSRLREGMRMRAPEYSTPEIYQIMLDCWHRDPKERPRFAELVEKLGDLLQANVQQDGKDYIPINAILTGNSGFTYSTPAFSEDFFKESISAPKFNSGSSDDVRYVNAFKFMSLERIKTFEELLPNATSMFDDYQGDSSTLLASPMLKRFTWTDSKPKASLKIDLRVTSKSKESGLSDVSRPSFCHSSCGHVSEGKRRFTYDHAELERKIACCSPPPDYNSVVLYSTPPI
# [34] = biological target: Macrophage colony-stimulating factor 1 receptor (Homo sapiens, UniProt P07333); format: functional;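 also: value comes from the Navigating the Kinome screening panel, CSF1R member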
# Macrophage colony-stimulating factor 1 receptor, sequence (P07333 whole entry): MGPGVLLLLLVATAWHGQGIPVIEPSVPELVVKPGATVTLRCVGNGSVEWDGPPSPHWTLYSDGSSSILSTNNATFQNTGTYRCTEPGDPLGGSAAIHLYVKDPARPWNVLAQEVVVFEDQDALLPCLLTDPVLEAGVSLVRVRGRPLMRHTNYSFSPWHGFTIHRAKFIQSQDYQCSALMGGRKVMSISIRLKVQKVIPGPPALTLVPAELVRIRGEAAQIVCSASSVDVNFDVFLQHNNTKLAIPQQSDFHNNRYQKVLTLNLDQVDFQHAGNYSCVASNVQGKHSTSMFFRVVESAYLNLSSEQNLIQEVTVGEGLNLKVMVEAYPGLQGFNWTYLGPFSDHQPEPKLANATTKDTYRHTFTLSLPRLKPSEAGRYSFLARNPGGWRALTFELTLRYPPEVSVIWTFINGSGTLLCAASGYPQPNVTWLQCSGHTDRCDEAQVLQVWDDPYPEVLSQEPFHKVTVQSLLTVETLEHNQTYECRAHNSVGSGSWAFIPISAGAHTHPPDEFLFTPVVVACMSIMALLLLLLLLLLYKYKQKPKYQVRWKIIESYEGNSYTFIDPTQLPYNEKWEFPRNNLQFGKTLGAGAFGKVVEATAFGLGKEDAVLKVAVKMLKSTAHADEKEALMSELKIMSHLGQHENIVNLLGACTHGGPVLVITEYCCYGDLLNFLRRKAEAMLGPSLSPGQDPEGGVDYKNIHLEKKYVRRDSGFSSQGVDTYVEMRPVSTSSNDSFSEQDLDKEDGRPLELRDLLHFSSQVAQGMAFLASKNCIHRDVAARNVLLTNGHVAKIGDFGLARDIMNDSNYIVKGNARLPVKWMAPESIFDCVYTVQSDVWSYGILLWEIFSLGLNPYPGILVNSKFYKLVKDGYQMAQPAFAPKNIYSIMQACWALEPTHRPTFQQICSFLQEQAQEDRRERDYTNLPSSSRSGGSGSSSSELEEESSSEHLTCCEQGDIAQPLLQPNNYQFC
# [35] = biological target: T6, ATP-dependent translocase ABCB1 (Homo sapiens, UniProt P08183); experiment: inhibition of BCRP-mediated JC-1 efflux – Ig-MXP3 cells, flow cytometry, set 2, dose response (AID 504566); format: functional; conditions: read-out: EC50_MICROM_;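 also: flow cytometry median green fluorescence of retained JC-1 dye; potency of efflux pump inhibition measured as rising substrate retention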
# T6 sequence (P08183 whole entry): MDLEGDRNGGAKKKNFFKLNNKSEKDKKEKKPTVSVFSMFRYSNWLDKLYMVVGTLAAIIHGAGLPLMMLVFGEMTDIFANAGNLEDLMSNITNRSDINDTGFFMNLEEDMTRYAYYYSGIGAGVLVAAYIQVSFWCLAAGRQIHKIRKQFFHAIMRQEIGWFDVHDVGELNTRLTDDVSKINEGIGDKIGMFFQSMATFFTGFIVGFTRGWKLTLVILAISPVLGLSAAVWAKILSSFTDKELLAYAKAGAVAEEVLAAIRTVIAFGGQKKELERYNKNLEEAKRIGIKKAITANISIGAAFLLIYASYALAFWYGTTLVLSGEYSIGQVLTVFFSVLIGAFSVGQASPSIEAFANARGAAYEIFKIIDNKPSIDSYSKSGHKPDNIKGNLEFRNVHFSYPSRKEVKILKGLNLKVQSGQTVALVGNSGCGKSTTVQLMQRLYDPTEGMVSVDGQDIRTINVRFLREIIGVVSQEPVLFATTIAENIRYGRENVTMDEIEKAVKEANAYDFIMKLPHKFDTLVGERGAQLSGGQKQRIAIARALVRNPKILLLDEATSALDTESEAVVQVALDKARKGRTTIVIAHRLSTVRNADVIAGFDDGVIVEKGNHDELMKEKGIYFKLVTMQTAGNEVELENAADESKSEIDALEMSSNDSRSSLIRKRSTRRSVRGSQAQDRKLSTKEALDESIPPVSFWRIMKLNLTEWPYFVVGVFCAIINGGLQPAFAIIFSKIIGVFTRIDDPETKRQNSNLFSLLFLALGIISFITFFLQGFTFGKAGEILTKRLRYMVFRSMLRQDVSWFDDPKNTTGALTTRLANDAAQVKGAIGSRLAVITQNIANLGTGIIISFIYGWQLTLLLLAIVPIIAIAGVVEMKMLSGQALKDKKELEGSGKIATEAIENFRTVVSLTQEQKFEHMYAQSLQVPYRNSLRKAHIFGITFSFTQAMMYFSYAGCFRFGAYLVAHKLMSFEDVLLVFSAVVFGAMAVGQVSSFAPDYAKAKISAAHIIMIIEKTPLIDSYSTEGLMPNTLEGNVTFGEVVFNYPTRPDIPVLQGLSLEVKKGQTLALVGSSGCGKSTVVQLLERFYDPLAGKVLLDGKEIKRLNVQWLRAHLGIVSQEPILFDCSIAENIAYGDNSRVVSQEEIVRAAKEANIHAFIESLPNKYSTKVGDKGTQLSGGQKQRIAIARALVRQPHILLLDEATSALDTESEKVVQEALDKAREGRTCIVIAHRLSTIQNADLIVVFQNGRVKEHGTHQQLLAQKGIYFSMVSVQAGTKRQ
# [36] = biological target: T6, ATP-dependent translocase ABCB1; experiment: P-gp JC-1 efflux blockade concentration-response – Jurkat-DNR cells, flow cytometry, set 2, dose response (AID 504569); format: functional; conditions: read-out: EC50_MICROM_;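 also: potency of pump inhibitors that raise cellular JC-1 green fluorescence up to the nicardipine level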
# [37] = biological target: Aryl hydrocarbon receptor (Homo sapiens, UniProt P35869); conditions: Potency;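 also: confirmatory quantitative high-throughput screen measuring activation of the AhR signaling pathway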
# [38] = biological target: Mitochondrial peptide methionine sulfoxide reductase (Bos taurus, UniProt P54149); format: functional;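 also: absorbance read-out, biochemical high-throughput dose-response screen for MsrA inhibitors, confirmatory; recombinant bovine MsrA coupled to E. coli TrxB with NADPH and selenocystamine; potency is for inhibitors of MsrA activity on DMSO substrate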
smiles,measurement,setting,value
Cc1ccc[n+](CC(=O)Nc2cc(C(F)(F)F)ccc2N2CCOCC2)c1,IC50,[1],2.88 µM (active)
same,IC50,[2],7.42 µM (active)
same,IC50,[3],26.6 µM (inactive)
same,IC50,[4],0.601 µM (active)
same,IC50,[5],9.17 µM (active)
same,IC50,[6],20.3 µM (inactive)
Brc1ccc(-c2nn3c(-c4ccccn4)nnc3s2)o1,IC50,[7],14.8 µM (active)
same,AC50,[8],104 µM (active)
N=C(NNS(=O)(=O)c1cc(C(F)(F)F)cc(C(F)(F)F)c1)c1ccccn1,AC50,[9],104 µM (active)
Cc1c(-c2ccnc3cc(C(=O)O)nn23)cnn1C,IC50,[3],88.9 µM (inactive)
same,IC50,[4],> 99 µM (inactive)
O=C1c2cccc(Cl)c2C(=O)c2c1cccc2N1CCCC1,IC50,[10],8.7 µM (active)
same,AbsAC35_uM,[11],61.52 µM
same,AC50,[12],2.51 µM (active)
COc1ccccc1-c1cc(NC=O)c2ncc(-c3cccc(C(F)(F)F)c3)n2c1,EC50,[13],> 89.2 µM (inactive)
O=C(NCc1ccccc1)c1c[nH]n2c(=O)cc(-c3ccncc3)nc12,Ki,[14],0.0251 µM (active)
same,Ki,[15],0.00501 µM (active)
same,Ki,[16],0.02 µM (active)
same,Ki,[17],6.31 µM (active)
same,Ki,[18],0.00251 µM (active)
same,Ki,[19],3.98 µM (active)
same,Ki,[20],0.00501 µM (active)
same,Ki,[21],0.1 µM (active)
Nc1n[nH]c2cccc(-c3ccc(NC(=O)Nc4cccc(Cl)c4)c(F)c3)c12,Ki,[22],0.1 µM (active)
same,pKi,[22],7
same,Ki,[23],0.000794 µM (active)
same,pKi,[23],9.1
same,Ki,[24],0.158 µM (active)
same,pKi,[24],6.8
same,Ki,[25],0.2 µM (active)
same,pKi,[25],6.7
same,Ki,[26],1.26 µM (active)
same,pKi,[26],5.9
same,Ki,[27],0.501 µM (active)
same,Ki,[28],0.001 µM (active)
same,pKi,[28],9
same,Ki,[29],0.501 µM (active)
same,pKi,[29],6.3
same,Ki,[30],0.00316 µM (active)
same,pKi,[30],8.5
same,Ki,[31],0.00316 µM (active)
same,pKi,[31],8.5
same,Ki,[32],0.398 µM (active)
same,pKi,[32],6.4
same,Ki,[33],0.000631 µM (active)
same,pKi,[33],9.2
same,Ki,[34],0.002 µM (active)
same,pKi,[34],8.7
COc1ccc(-c2cc3nc(-c4ccccc4)cc(N4CCN(C(=O)c5ccsc5)CC4)n3n2)cc1,EC50,[35],0.77 µM (active)
same,EC50,[36],1.02 µM (active)
O=C(O)c1cc2ccccc2cc1O,AC50,[37],50.1 µM (inconclusive)
CCOC(=O)CC(C)(C)/C(C)=N/Nc1ccc([N+](=O)[O-])cc1[N+](=O)[O-],IC50,[38],155 µM (inactive)
